Measured values published in ChEMBL document CHEMBL1201862, “PubChem BioAssay data set” (2004).
The source made the active and inactive calls.

Columns and labels:
[1] = molecular target: T1, Fatty acid synthase (Homo sapiens, UniProt P49327); experiment: FAS thioesterase domain inhibitors, dose response, biochemical, endpoint fluorescence intensity, uHTS hits (AID 624327); assay type: functional;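 further: fluorescence from hydrolysis of an O-methyl fluorescein acyl ester substrate by the enzyme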
T1 sequence (P49327 whole entry, the tested form may be a part): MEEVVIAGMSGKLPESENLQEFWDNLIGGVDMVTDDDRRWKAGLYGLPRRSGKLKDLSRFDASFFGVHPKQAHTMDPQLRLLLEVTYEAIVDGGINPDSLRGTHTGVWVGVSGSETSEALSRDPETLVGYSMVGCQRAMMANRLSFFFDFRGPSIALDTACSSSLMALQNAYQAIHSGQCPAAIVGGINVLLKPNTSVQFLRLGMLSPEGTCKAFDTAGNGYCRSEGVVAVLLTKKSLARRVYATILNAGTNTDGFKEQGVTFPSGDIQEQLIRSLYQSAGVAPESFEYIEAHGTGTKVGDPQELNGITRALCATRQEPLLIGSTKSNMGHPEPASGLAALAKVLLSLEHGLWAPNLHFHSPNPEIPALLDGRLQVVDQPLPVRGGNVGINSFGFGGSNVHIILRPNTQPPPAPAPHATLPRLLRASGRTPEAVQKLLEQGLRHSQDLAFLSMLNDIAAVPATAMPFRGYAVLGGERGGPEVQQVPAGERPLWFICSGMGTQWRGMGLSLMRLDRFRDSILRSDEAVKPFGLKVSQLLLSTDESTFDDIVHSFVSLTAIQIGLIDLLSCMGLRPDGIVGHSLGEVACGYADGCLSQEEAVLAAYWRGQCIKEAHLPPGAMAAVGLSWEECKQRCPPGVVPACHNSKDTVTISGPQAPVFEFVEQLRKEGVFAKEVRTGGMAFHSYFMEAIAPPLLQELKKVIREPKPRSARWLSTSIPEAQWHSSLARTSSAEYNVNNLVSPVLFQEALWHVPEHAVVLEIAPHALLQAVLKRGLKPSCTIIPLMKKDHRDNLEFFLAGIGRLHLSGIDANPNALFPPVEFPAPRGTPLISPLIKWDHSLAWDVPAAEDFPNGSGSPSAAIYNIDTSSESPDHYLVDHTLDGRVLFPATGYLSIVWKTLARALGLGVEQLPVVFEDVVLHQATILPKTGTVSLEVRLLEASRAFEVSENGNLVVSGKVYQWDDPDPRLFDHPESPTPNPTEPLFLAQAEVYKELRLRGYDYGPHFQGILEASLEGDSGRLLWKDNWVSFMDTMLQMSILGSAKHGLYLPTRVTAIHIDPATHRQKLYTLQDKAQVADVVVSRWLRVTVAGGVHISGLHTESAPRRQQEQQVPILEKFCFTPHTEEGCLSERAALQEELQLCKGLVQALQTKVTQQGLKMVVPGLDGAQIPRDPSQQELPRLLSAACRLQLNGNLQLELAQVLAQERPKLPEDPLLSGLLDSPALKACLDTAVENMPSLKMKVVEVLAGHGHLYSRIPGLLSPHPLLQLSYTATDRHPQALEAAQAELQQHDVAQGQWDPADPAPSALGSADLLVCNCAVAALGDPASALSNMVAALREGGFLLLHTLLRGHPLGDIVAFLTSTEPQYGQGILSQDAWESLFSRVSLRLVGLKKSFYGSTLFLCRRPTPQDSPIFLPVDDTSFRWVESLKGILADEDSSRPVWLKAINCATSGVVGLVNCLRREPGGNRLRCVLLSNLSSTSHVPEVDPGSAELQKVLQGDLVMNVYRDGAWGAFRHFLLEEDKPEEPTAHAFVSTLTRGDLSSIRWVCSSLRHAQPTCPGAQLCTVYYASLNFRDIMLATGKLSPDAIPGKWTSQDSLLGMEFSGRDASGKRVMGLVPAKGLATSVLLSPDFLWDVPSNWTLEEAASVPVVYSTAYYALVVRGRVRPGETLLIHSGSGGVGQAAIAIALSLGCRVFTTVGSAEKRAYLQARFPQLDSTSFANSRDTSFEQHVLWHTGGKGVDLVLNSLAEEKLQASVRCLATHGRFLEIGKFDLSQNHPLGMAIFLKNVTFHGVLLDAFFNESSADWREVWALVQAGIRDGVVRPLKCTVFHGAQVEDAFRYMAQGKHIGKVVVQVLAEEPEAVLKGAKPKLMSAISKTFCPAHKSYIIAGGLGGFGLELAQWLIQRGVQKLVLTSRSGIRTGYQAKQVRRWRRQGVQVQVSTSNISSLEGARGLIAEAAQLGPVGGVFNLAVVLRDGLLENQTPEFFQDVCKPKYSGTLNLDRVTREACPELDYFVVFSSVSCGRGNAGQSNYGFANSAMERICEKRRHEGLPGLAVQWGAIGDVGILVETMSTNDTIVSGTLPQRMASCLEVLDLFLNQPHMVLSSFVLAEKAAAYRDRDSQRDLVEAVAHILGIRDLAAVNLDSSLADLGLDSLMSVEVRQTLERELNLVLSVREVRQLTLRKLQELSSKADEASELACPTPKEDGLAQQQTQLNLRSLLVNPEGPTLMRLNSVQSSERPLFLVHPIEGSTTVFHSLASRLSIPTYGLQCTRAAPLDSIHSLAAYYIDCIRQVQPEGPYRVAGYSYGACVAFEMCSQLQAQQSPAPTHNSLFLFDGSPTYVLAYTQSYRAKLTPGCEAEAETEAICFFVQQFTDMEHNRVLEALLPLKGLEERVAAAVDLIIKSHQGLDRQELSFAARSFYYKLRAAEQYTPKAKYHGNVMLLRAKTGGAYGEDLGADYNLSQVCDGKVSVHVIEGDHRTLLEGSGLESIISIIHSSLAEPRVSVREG

[2] = molecular target: T1, Fatty acid synthase; experiment: FAS thioesterase domain inhibitors, dose response, biochemical, kinetic fluorescence intensity (AID 624326); assay type: functional;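 further: rate of fluorescence rise from hydrolysis of a fluorogenic O-methyl fluorescein ester substrate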
[3] = molecular target: Beta-2 adrenergic receptor (Homo sapiens, UniProt P07550); experiment: beta2AR agonists driving receptor internalization, dose response, cell-based, FAP fluorogen, flow cytometry, cherry pick 1 (AID 588763); assay type: functional
Beta-2 adrenergic receptor, sequence (P07550 whole entry): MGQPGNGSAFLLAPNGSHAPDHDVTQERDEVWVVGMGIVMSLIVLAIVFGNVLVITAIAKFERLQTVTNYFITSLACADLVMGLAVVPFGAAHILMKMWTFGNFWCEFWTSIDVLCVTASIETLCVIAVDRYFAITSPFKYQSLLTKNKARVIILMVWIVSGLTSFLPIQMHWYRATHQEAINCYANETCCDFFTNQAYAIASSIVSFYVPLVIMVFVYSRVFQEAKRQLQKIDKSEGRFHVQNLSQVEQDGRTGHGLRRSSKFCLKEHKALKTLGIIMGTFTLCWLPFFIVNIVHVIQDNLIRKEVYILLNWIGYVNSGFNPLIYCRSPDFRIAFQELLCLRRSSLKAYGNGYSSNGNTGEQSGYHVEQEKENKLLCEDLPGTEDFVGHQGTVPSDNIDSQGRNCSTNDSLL

[4] = growth suppression of PTEN-null colon cells, dose response, cell-based, HCT116 PTEN knockout (AID 1047); assay type: functional;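 further: HCT116 colon tumor cells with PTEN knocked out; cells exposed to compound for 60 hours before readout; potency for loss of cell viability measured by luminescence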
[5] = growth suppression of beta-catenin-knockout colon cells, dose response, cell-based, HCT116, human colon tumor (AID 1045); assay type: functional;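 further: HCT116 colon tumor cells with beta catenin knocked out; cells exposed to compound for 60 hours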
[6] = molecular target: T2, Microphthalmia-associated transcription factor (Homo sapiens, UniProt O75030); experiment: TRPM1 promoter luciferase signal decrease, dose response, MITF inhibitor project, cell-based, SK-MEL-5, cherry-picked, set 3 (AID 493073); assay type: functional
T2 sequence (O75030 whole entry): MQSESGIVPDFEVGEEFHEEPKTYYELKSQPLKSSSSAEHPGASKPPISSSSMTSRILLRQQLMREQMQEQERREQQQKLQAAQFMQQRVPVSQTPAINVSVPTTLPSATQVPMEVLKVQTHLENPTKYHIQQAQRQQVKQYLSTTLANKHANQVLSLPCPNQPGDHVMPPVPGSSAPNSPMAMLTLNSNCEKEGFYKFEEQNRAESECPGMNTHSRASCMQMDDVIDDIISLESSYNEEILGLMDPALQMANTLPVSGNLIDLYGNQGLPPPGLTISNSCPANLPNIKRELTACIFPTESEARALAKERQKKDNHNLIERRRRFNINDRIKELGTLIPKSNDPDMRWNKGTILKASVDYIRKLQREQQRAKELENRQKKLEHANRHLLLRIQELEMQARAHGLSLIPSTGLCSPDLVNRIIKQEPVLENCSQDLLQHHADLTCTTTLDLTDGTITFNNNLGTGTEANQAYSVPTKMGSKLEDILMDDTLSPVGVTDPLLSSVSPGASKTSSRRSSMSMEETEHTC

[7] = Luminescence Cell-Based Dose Retest to Confirm Inhibitors of Cancer Stem Cells. [Related pubchem assays (depositor defined):AID2717, AID2721]; assay type: functional; conditions: Homo sapiens
[8] = system: A-375; experiment: A375 melanoma cell viability reduction, dose response, counter-screen for MITF modulator project, cherry-pick samples, set 2 (AID 540335); assay type: functional, cell-based; conditions: Homo sapiens
[9] = molecular target: 5-hydroxytryptamine receptor 5A (Homo sapiens, UniProt P47898); experiment: Counterscreen for agonists of OPRM1-OPRD1 heterodimerization: luminescence-based cell-based high throughput dose response assay to identify agonists of 5-hydroxytryptamine (serotonin) 5A receptor (HTR5A). [Related pubchem assays (depositor defined):AID504326, AID504355, AID504692, AID504904, AID504905]; assay type: functional
5-hydroxytryptamine receptor 5A, sequence (P47898 whole entry): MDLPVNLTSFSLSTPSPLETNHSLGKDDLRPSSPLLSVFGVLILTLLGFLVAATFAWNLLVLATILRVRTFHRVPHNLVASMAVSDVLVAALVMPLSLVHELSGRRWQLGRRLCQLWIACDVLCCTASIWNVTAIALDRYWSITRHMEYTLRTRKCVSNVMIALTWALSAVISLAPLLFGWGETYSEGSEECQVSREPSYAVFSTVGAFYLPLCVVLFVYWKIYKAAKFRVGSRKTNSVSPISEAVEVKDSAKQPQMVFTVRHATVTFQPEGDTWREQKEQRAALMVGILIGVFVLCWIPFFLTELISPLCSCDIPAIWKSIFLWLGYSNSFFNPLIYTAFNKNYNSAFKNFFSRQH

[10] = molecular target: Neurotensin receptor type 1 (Homo sapiens, UniProt P30989); assay type: functional;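 further: Image-based confirmatory dose-response assay measuring agonist activity at NTR1; NTR1-expressing U2OS osteosarcoma cells imaged for beta-arrestin GFP spot formation; agonist potency where compounds increase beta-arrestin recruitment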
Neurotensin receptor type 1, sequence (P30989 whole entry): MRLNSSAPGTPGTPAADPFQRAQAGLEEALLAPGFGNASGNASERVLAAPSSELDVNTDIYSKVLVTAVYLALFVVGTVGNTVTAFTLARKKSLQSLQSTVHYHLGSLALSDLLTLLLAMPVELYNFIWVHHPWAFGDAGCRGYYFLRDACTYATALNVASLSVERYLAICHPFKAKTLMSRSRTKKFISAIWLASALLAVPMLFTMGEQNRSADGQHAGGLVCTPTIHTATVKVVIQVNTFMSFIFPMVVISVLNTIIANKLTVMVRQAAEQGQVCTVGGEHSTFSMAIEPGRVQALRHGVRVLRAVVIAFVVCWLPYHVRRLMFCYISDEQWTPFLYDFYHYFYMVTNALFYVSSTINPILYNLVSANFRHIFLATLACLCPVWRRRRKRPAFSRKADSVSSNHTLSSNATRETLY

[11] = molecular target: Mu-type opioid receptor (Homo sapiens, UniProt P35372); experiment: (§1) Counterscreen for agonists of heterodimerization of the mu 1 (OPRM1) and delta 1 (OPRD1) opioid receptors: Luminescence-based cell-based high throughput dose response assay to identify agonists of OPRM1 homodimerization.; assay type: functional
Mu-type opioid receptor, sequence (P35372 whole entry): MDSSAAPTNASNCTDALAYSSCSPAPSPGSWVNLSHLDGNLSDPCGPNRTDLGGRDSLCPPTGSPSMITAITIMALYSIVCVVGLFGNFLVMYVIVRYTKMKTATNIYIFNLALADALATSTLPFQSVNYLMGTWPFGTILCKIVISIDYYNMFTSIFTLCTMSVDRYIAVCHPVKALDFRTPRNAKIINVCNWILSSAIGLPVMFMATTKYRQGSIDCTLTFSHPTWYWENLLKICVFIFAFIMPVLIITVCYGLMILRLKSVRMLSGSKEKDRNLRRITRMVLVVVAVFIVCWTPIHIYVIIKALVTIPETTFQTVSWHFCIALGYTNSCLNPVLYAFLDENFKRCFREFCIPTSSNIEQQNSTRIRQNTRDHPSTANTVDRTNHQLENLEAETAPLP

[12] = molecular target: T3, Streptokinase A (Streptococcus pyogenes serotype M1, UniProt P10520); experiment: S. pyogenes streptokinase expression inhibitors, potency, dose response, plasminogen activation absorbance, OD405 (AID 1914); assay type: functional, Streptococcus pyogenes M1 GAS;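 further: secreted streptokinase activity via plasminogen activation per viability signal from cell pellet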
T3 sequence (P10520 whole entry): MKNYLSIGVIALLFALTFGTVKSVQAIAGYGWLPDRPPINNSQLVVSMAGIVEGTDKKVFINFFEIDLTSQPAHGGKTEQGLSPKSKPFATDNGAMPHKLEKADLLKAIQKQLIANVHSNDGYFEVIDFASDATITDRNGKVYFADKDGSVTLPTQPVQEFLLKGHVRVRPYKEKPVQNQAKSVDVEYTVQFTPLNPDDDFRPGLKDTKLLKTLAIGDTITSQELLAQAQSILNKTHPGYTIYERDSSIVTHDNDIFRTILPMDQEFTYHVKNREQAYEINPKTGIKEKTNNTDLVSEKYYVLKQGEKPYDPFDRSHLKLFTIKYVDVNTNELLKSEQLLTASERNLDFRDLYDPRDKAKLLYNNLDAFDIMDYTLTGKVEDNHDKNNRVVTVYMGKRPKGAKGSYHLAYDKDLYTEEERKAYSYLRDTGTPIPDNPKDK

[13] = molecular target: Melanocortin receptor 4 (Homo sapiens, UniProt P32245); experiment: MC4R antagonist potency on cAMP, dose response, cell-based, TR-FRET, biased antagonists (AID 602298); assay type: functional;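 further: antagonist potency against agonist-stimulated cAMP production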
Melanocortin receptor 4, sequence (P32245 whole entry): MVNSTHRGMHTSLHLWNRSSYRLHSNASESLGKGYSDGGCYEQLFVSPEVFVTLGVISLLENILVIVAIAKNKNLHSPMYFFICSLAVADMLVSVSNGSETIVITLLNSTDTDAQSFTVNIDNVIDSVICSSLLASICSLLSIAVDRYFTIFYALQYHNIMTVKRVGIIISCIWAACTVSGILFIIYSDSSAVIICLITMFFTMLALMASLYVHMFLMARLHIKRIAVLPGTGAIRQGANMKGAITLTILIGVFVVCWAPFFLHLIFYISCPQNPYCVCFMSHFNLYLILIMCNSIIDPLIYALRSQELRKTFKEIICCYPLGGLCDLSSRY

[14] = system: Streptococcus sp. 'group A'; experiment: growth inhibition of control SK(-) GAS strain, dose response, counter-screen for streptokinase expression inhibitor project, luminescence, kanamycin, BacTiterGlo, confirmation (AID 1900); assay type: functional, organism-based
[15] = system: Streptococcus; experiment: Group A Streptococcus viability loss, dose response, counter-screen for streptokinase expression inhibitor project, luminescence, BacTiterGlo (AID 1915); assay type: functional, organism-based;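 further: potency for reduction of bacterial viability or growth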
[16] = system: A-375; experiment: MITF: Counter assay: A375 proliferation Measured in Cell-Based System Using Plate Reader - 2084-03_Inhibitor_Dose_DryPowder_Activity. [Related pubchem assays (depositor defined):AID488944]; assay type: functional; conditions: Homo sapiens
[17] = nonselective inhibitors of cellular cAMP signaling, dose response, counter-screen for MC4R biased antagonist project, cell-based, TR-FRET cAMP detection (AID 602305); assay type: functional;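 further: U2OS cells stimulated with forskolin near its EC80 as the cAMP inducer; potency is for inhibition of forskolin-stimulated cAMP signaling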
[18] = molecular target: Delta-type opioid receptor (Homo sapiens, UniProt P41143); experiment: as §1, with “of OPRD1” for “of OPRM1”, “homodimerization. [Related pubchem assays (depositor defined):AID504326, AID504355, AID504692, AID504904, AID504905]” for “homodimerization.”; assay type: functional
Delta-type opioid receptor, sequence (P41143 whole entry): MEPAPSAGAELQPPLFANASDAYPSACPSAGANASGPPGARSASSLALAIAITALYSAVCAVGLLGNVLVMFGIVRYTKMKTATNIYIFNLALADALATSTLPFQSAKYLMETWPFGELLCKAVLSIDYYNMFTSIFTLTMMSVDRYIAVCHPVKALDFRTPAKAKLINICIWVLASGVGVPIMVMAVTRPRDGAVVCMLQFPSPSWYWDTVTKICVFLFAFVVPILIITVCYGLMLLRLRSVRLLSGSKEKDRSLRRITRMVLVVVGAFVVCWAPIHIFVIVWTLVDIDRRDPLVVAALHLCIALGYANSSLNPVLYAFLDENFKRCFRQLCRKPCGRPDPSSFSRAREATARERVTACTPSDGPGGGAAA

Structure (SMILES) | IC50 [1] | IC50 [2] | EC50 [3] | EC50 [4] | EC50 [5] | AC50 [6] | AC50 [7] | AC50 [8] | EC50 [9] | EC50 [10] | EC50 [11] | EC50 [12] | IC50 [13] | EC50 [14] | EC50 [15] | AC50 [16] | IC50 [17] | EC50 [18]
N#Cc1cc(-c2ccccc2)nc(Oc2ccc(Cl)cc2)n1 | 7.97 µM (active) | 9.1 µM (active) | 1.25 µM (active) |  |  |  |  |  |  |  |  |  |  |  |  |  |  | 
Cc1ccc(NC2=C(Cl)C(=O)c3ccccc3C2=O)cc1 |  |  |  | 10.7 µM (active) | 4.88 µM (active) | 5.25 µM (active) | 1.17 µM (active) | 12.6 µM (active) |  |  |  |  |  |  |  |  |  | 
CN(C)S(=O)(=O)c1ccc(-c2csc(N/N=C/c3ccc(O)cc3)n2)cc1 |  |  |  |  |  | 4.6 µM (active) |  |  | > 92.5 µM (inactive) | 6.62 µM (active) | > 92.5 µM (inactive) | > 150 µM (not active) | > 64.6 µM (inactive) | 8.68 µM (active) | 13.3 µM (active) | 30.8 µM (active) | > 64.6 µM (inactive) | > 92.5 µM (inactive)
